# Experimental data: the CheMixHub viscosity set
# ± gives the uncertainty stated by the source.
# Test: xn = mol fraction of the nth substance listed
smiles,measurement,setting,value
CCCCOCCOCCO + ClCCl,viscosity,"298.15 K, 101.33 kPa, x1 = 0.0047",0.418 ± 0.012 mPa·s
same,viscosity,"298.15 K, 101.33 kPa, x1 = 0.012",0.433 ± 0.013 mPa·s
same,viscosity,"298.15 K, 101.33 kPa, x1 = 0.02",0.448 ± 0.013 mPa·s
same,viscosity,"298.15 K, 101.33 kPa, x1 = 0.0388",0.48 ± 0.014 mPa·s
same,viscosity,"298.15 K, 101.33 kPa, x1 = 0.0685",0.56 ± 0.015 mPa·s
same,viscosity,"298.15 K, 101.33 kPa, x1 = 0.1079",0.649 ± 0.017 mPa·s
same,viscosity,"298.15 K, 101.33 kPa, x1 = 0.1533",0.78 ± 0.02 mPa·s
same,viscosity,"298.15 K, 101.33 kPa, x1 = 0.1882",0.907 ± 0.023 mPa·s
same,viscosity,"298.15 K, 101.33 kPa, x1 = 0.2206",1.028 ± 0.026 mPa·s
same,viscosity,"298.15 K, 101.33 kPa, x1 = 0.2751",1.226 ± 0.03 mPa·s
same,viscosity,"298.15 K, 101.33 kPa, x1 = 0.3166",1.409 ± 0.034 mPa·s
same,viscosity,"298.15 K, 101.33 kPa, x1 = 0.3515",1.576 ± 0.038 mPa·s
same,viscosity,"298.15 K, 101.33 kPa, x1 = 0.397",1.807 ± 0.043 mPa·s
same,viscosity,"298.15 K, 101.33 kPa, x1 = 0.4383",2.028 ± 0.048 mPa·s
same,viscosity,"298.15 K, 101.33 kPa, x1 = 0.4759",2.224 ± 0.052 mPa·s
same,viscosity,"298.15 K, 101.33 kPa, x1 = 0.5118",2.425 ± 0.056 mPa·s
same,viscosity,"298.15 K, 101.33 kPa, x1 = 0.5496",2.627 ± 0.061 mPa·s
same,viscosity,"298.15 K, 101.33 kPa, x1 = 0.6026",2.965 ± 0.068 mPa·s
same,viscosity,"298.15 K, 101.33 kPa, x1 = 0.6535",3.267 ± 0.074 mPa·s
same,viscosity,"298.15 K, 101.33 kPa, x1 = 0.7124",3.628 ± 0.082 mPa·s
same,viscosity,"298.15 K, 101.33 kPa, x1 = 0.7606",3.893 ± 0.088 mPa·s
same,viscosity,"298.15 K, 101.33 kPa, x1 = 0.8051",4.163 ± 0.094 mPa·s
same,viscosity,"298.15 K, 101.33 kPa, x1 = 0.854",4.458 ± 0.1 mPa·s
same,viscosity,"298.15 K, 101.33 kPa, x1 = 0.9019",4.724 ± 0.11 mPa·s
same,viscosity,"298.15 K, 101.33 kPa, x1 = 0.9342",4.893 ± 0.11 mPa·s
same,viscosity,"298.15 K, 101.33 kPa, x1 = 0.9731",5.104 ± 0.11 mPa·s
Nc1ccccc1Cl + Clc1cccc(Cl)c1,viscosity,"303.15 K, 101 kPa, x1 = 0.1088",1.108 ± 0.023 mPa·s
same,viscosity,"303.15 K, 101 kPa, x1 = 0.2155",1.292 ± 0.027 mPa·s
same,viscosity,"303.15 K, 101 kPa, x1 = 0.3202",1.499 ± 0.031 mPa·s
same,viscosity,"303.15 K, 101 kPa, x1 = 0.4228",1.732 ± 0.036 mPa·s
same,viscosity,"303.15 K, 101 kPa, x1 = 0.5235",1.994 ± 0.042 mPa·s
same,viscosity,"303.15 K, 101 kPa, x1 = 0.6224",2.288 ± 0.048 mPa·s
same,viscosity,"303.15 K, 101 kPa, x1 = 0.7194",2.615 ± 0.054 mPa·s
same,viscosity,"303.15 K, 101 kPa, x1 = 0.8147",2.979 ± 0.062 mPa·s
same,viscosity,"303.15 K, 101 kPa, x1 = 0.9082",3.382 ± 0.07 mPa·s
same,viscosity,"308.15 K, 101 kPa, x1 = 0.1088",1.043 ± 0.022 mPa·s
same,viscosity,"308.15 K, 101 kPa, x1 = 0.2155",1.211 ± 0.025 mPa·s
same,viscosity,"308.15 K, 101 kPa, x1 = 0.3202",1.398 ± 0.029 mPa·s
same,viscosity,"308.15 K, 101 kPa, x1 = 0.4228",1.607 ± 0.034 mPa·s
same,viscosity,"308.15 K, 101 kPa, x1 = 0.5235",1.84 ± 0.038 mPa·s
same,viscosity,"308.15 K, 101 kPa, x1 = 0.6224",2.098 ± 0.044 mPa·s
same,viscosity,"308.15 K, 101 kPa, x1 = 0.7194",2.382 ± 0.05 mPa·s
same,viscosity,"308.15 K, 101 kPa, x1 = 0.8147",2.695 ± 0.056 mPa·s
same,viscosity,"308.15 K, 101 kPa, x1 = 0.9082",3.038 ± 0.063 mPa·s
same,viscosity,"313.15 K, 101 kPa, x1 = 0.1088",0.9857 ± 0.021 mPa·s
same,viscosity,"313.15 K, 101 kPa, x1 = 0.2155",1.138 ± 0.024 mPa·s
same,viscosity,"313.15 K, 101 kPa, x1 = 0.3202",1.308 ± 0.027 mPa·s
same,viscosity,"313.15 K, 101 kPa, x1 = 0.4228",1.496 ± 0.031 mPa·s
same,viscosity,"313.15 K, 101 kPa, x1 = 0.5235",1.703 ± 0.036 mPa·s
same,viscosity,"313.15 K, 101 kPa, x1 = 0.6224",1.931 ± 0.04 mPa·s
same,viscosity,"313.15 K, 101 kPa, x1 = 0.7194",2.179 ± 0.045 mPa·s
same,viscosity,"313.15 K, 101 kPa, x1 = 0.8147",2.45 ± 0.051 mPa·s
same,viscosity,"313.15 K, 101 kPa, x1 = 0.9082",2.743 ± 0.057 mPa·s
same,viscosity,"318.15 K, 101 kPa, x1 = 0.1088",0.9257 ± 0.019 mPa·s
same,viscosity,"318.15 K, 101 kPa, x1 = 0.2155",1.066 ± 0.022 mPa·s
same,viscosity,"318.15 K, 101 kPa, x1 = 0.3202",1.222 ± 0.025 mPa·s
same,viscosity,"318.15 K, 101 kPa, x1 = 0.4228",1.392 ± 0.029 mPa·s
same,viscosity,"318.15 K, 101 kPa, x1 = 0.5235",1.579 ± 0.033 mPa·s
same,viscosity,"318.15 K, 101 kPa, x1 = 0.6224",1.781 ± 0.037 mPa·s
same,viscosity,"318.15 K, 101 kPa, x1 = 0.7194",2.001 ± 0.042 mPa·s
same,viscosity,"318.15 K, 101 kPa, x1 = 0.8147",2.237 ± 0.047 mPa·s
same,viscosity,"318.15 K, 101 kPa, x1 = 0.9082",2.491 ± 0.052 mPa·s
CC(O)CC(C)(C)O (stereo unspecified) + Clc1ccccc1,viscosity,"308.15 K, 101 kPa, x1 = 0.0989",0.7755 ± 0.078 mPa·s
same,viscosity,"308.15 K, 101 kPa, x1 = 0.1989",0.9332 ± 0.093 mPa·s
same,viscosity,"308.15 K, 101 kPa, x1 = 0.2931",1.164 ± 0.12 mPa·s
same,viscosity,"308.15 K, 101 kPa, x1 = 0.3916",1.513 ± 0.15 mPa·s
same,viscosity,"308.15 K, 101 kPa, x1 = 0.4927",2.151 ± 0.22 mPa·s
same,viscosity,"308.15 K, 101 kPa, x1 = 0.5867",2.823 ± 0.28 mPa·s
same,viscosity,"308.15 K, 101 kPa, x1 = 0.6888",4.238 ± 0.42 mPa·s
same,viscosity,"308.15 K, 101 kPa, x1 = 0.7938",6.453 ± 0.65 mPa·s
same,viscosity,"308.15 K, 101 kPa, x1 = 0.8999",10.85 ± 1.1 mPa·s
same,viscosity,"318.15 K, 101 kPa, x1 = 0.0989",0.6372 ± 0.064 mPa·s
same,viscosity,"318.15 K, 101 kPa, x1 = 0.1989",0.7412 ± 0.074 mPa·s
same,viscosity,"318.15 K, 101 kPa, x1 = 0.2931",0.9438 ± 0.095 mPa·s
same,viscosity,"318.15 K, 101 kPa, x1 = 0.3916",1.242 ± 0.12 mPa·s
same,viscosity,"318.15 K, 101 kPa, x1 = 0.4927",1.814 ± 0.18 mPa·s
same,viscosity,"318.15 K, 101 kPa, x1 = 0.5867",2.278 ± 0.23 mPa·s
same,viscosity,"318.15 K, 101 kPa, x1 = 0.6888",3.416 ± 0.34 mPa·s
same,viscosity,"318.15 K, 101 kPa, x1 = 0.7938",5.241 ± 0.52 mPa·s
same,viscosity,"318.15 K, 101 kPa, x1 = 0.8999",9.228 ± 0.92 mPa·s
Nc1ccccc1Cl + Clc1ccccc1Cl,viscosity,"303.15 K, 101 kPa, x1 = 0.1063",1.4 ± 0.28 mPa·s
same,viscosity,"303.15 K, 101 kPa, x1 = 0.2111",1.584 ± 0.32 mPa·s
same,viscosity,"303.15 K, 101 kPa, x1 = 0.3145",1.786 ± 0.36 mPa·s
same,viscosity,"303.15 K, 101 kPa, x1 = 0.4164",2.008 ± 0.4 mPa·s
same,viscosity,"303.15 K, 101 kPa, x1 = 0.517",2.251 ± 0.45 mPa·s
same,viscosity,"303.15 K, 101 kPa, x1 = 0.6162",2.516 ± 0.5 mPa·s
same,viscosity,"303.15 K, 101 kPa, x1 = 0.7141",2.805 ± 0.56 mPa·s
same,viscosity,"303.15 K, 101 kPa, x1 = 0.8107",3.119 ± 0.62 mPa·s
same,viscosity,"303.15 K, 101 kPa, x1 = 0.906",3.458 ± 0.69 mPa·s
same,viscosity,"308.15 K, 101 kPa, x1 = 0.1063",1.295 ± 0.26 mPa·s
same,viscosity,"308.15 K, 101 kPa, x1 = 0.2111",1.461 ± 0.29 mPa·s
same,viscosity,"308.15 K, 101 kPa, x1 = 0.3145",1.642 ± 0.33 mPa·s
same,viscosity,"308.15 K, 101 kPa, x1 = 0.4164",1.84 ± 0.37 mPa·s
same,viscosity,"308.15 K, 101 kPa, x1 = 0.517",2.054 ± 0.41 mPa·s
same,viscosity,"308.15 K, 101 kPa, x1 = 0.6162",2.287 ± 0.46 mPa·s
same,viscosity,"308.15 K, 101 kPa, x1 = 0.7141",2.539 ± 0.51 mPa·s
same,viscosity,"308.15 K, 101 kPa, x1 = 0.8107",2.81 ± 0.56 mPa·s
same,viscosity,"308.15 K, 101 kPa, x1 = 0.906",3.101 ± 0.62 mPa·s
same,viscosity,"313.15 K, 101 kPa, x1 = 0.1063",1.192 ± 0.24 mPa·s
same,viscosity,"313.15 K, 101 kPa, x1 = 0.2111",1.342 ± 0.27 mPa·s
same,viscosity,"313.15 K, 101 kPa, x1 = 0.3145",1.506 ± 0.3 mPa·s
same,viscosity,"313.15 K, 101 kPa, x1 = 0.4164",1.683 ± 0.34 mPa·s
same,viscosity,"313.15 K, 101 kPa, x1 = 0.517",1.875 ± 0.38 mPa·s
same,viscosity,"313.15 K, 101 kPa, x1 = 0.6162",2.081 ± 0.42 mPa·s
same,viscosity,"313.15 K, 101 kPa, x1 = 0.7141",2.303 ± 0.46 mPa·s
same,viscosity,"313.15 K, 101 kPa, x1 = 0.8107",2.54 ± 0.51 mPa·s
same,viscosity,"313.15 K, 101 kPa, x1 = 0.906",2.792 ± 0.56 mPa·s
same,viscosity,"318.15 K, 101 kPa, x1 = 0.1063",1.102 ± 0.22 mPa·s
same,viscosity,"318.15 K, 101 kPa, x1 = 0.2111",1.24 ± 0.25 mPa·s
same,viscosity,"318.15 K, 101 kPa, x1 = 0.3145",1.39 ± 0.28 mPa·s
same,viscosity,"318.15 K, 101 kPa, x1 = 0.4164",1.551 ± 0.31 mPa·s
same,viscosity,"318.15 K, 101 kPa, x1 = 0.517",1.724 ± 0.34 mPa·s
same,viscosity,"318.15 K, 101 kPa, x1 = 0.6162",1.909 ± 0.38 mPa·s
same,viscosity,"318.15 K, 101 kPa, x1 = 0.7141",2.105 ± 0.42 mPa·s
same,viscosity,"318.15 K, 101 kPa, x1 = 0.8107",2.313 ± 0.46 mPa·s
same,viscosity,"318.15 K, 101 kPa, x1 = 0.906",2.532 ± 0.51 mPa·s
